In US8158589B2, “Peptides with the capacity to bind to transforming growth factor β1 (TGF-β1)” (Proyecto Biomedicine Cima, S.L., priority 2003, dated 2012):
Ends that are not written are not given here.

Experiments:
TGF-β1 [1] = biological target: T1, TGF-β1 (Mus musculus, UniProt P04202); assay: Bleomycin-induced pulmonary fibrosis, therapeutic treatment started ten days after bleomycin; assay type: in vivo, mice
T1 construct: from tissue; host or cells: liver of Balb/C mice (CCl4 model); lung of C57BL/6 mice (bleomycin model)
Procedure: Female C57BL/6 mice (6-8 weeks of age) were obtained from Harlan SL (Barcelona, Spain) and maintained in accordance with the ethical committee of Universidad de Navarra (Spain) for the experimental use of animals. Lung injury was induced with 0.08 units/mouse of bleomycin sulfate (Sigma, Spain) diluted in 200 μl of phosphate buffered saline (PBS). Briefly, the suspension of bleomycin was instilled by pippeting into the nose of mice previously anesthetized with 2% isoflurane vapor. PBS was instilled in mice as a negative control for pulmonary fibrosis (PF), following the same procedures. Peptide treatment was started two days after bleomycin challenge and it was administered intraperitoneally in 500 μl of PBS on alternate days. Mice received high (75 μg/mouse) or low (25 μg/mouse) doses of P17, or the high dose (75 μg/mouse) of control peptide P301. Lungs were obtained 15 or 26 days after bleomycin administration to evaluate profibrogenic gene expression or histological damage, respectively. To study the therapeutic effect of P17 in the development of fibrosis, it was administered daily ten days after bleomycin challenge, once fibrosis was established. […]
Lungs were fixed by inflation with 4% paraformaldehyde overnight and dehydrated in 70% ethanol. […] Percentage of fibrosis in the lung was evaluated by light microscopy by three different qualified persons using a blinded system.

TGF-β1 [2] = biological target: T2, TGF-β1 (Homo sapiens, UniProt P01137); set-up: purchased R&D Systems; host or cells: added to IMR-90 human lung fibroblasts; details: lung fibroblasts, Dotor et al. Cytokine 2007; cited from earlier work
Target sequence in this assay (P01137 279-390 limits assumed): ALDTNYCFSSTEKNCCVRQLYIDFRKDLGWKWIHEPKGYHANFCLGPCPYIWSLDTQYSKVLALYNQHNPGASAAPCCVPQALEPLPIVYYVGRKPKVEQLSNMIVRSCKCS

TGF-β1 [3] = biological target: T2, TGF-β1; assay type: cell-based; set-up: purchased Roche; host or cells: added to Mv-1-Lu (CCL-64) mink lung epithelial cells
Text: The cell line Mv-1-Lu (CCL-64, […], Virginia, USA) derives from mink pulmonary epithelium, grows as a monolayer, and responds to the presence of TGF-β1 by decreasing its proliferation (FIG. 5). Thus, the peptide-mediated inhibition of this cytokine is able to restore cell growth and reflects the capacity of the different peptides to inhibit the biological activity of TGF-β1 in vitro. The peptides tested were obtained by peptide synthesis, in accordance to conventional procedures (Merrifield R B. J Am Chem Soc 1963; 85:2149-2154; Atherton E et al. J Chem Soc Perkin Trans 1981; 1:538-546).
The Mv-1-Lu cells are cultured to confluence in complete medium [RPMI-1640 supplemented with L-glutamine, sodium pyruvate, antibiotics and 10% fetal bovine serum (FBS)] at 37° C. and in 5% CO2 in 162 cm^2 bottles (Costar Corporation, CA, USA). Following trypsinization, the cells are cultured in 200 μl of complete medium in 96-well plates at an initial density of 5,000 cells/well at 37° C. and in 5% CO2 during 6 hours to ensure adhesion. Then, different concentrations of the peptides to be tested are added, starting from 200 μg/ml, and following 200 pg/ml of TGF-β1 (Roche) are added. After 12 hours of incubation 1 μCi of methyl-3H-thymidine (Amersham Life Science, Buckinghamshire, United Kingdom) is added per well in 25 μl of clean medium (RPMI-1640). The plate is incubated for 12 more hours under the same conditions. Finally, the cells are harvested (Filtermate 196 Harvester, Packard), transferring the tritiated thymidine, incorporated in the course of DNA synthesis, to plates (UniFilter-96 GF/C®, Perkin Elmer). Following the addition of scintillation fluid, the radioactivity was quantified using a scintillation counter (Top Count, Microplate Scintillation Counter, Packard). As positive and negative control, use was made of the incorporation of tritiated thymidine in the absence and presence of TGF-β1, respectively. The inhibition of TGF-β1 activity in this test was calculated based on the following formula: […]
The negative control represents the incorporation of tritiated thymidine in the presence of TGF-β1 but in the absence of peptide, whereas the positive control refers to the incorporation of tritiated thymidine in the absence of TGF-β1 and peptide. Thus, according to the capacity of the peptides to revert the cytokine repressor effect on Mv-1-Lu cell line proliferation, percentage of TGF-β1 biological activity inhibition by the peptides can be measured (Table 2).
Comparisons have been made of the activity of truncated peptides (derived from peptide sequence SEQ ID NO: 17) versus the complete sequence, in terms of the capacity to revert the suppressor effect of TGF-β1 upon proliferation of the Mv-1-Lu cell line. To this effect, and to determine the minimum sequence of peptide SEQ ID NO: 17 capable of inhibiting the biological activity of TGF-β1 in vitro, truncated versions of this peptide were synthesized, with truncation at the N-terminal end, C-terminal end or in both ends of the molecule. The peptides tested were obtained by peptide synthesis following conventional procedures (Merrifield R B. J Am Chem Soc 1963; 85:2149-2154; Atherton E et al. J Chem Soc Perkin Trans 1981; 1:538-546). Following the same methodology described in Example 2, the activity of truncated peptides versus the complete sequence of the peptide SEQ ID NO: 17 was quantified, in terms of a proliferation assay of the Mv-1-Lu cell line.
Target sequence in this assay (P01137 279-390 limits assumed, species assumed): as the sequence (P01137 279-390 limits assumed) above

T1 sequence (P04202 279-390 limits assumed): as the sequence (P01137 279-390 limits assumed) above, with A75S counted along it

## KRIWFIPRSSWYERA [SEQ ID NO: 17, KRIWFIPRSSWYERA]
TGF-β1 [1]; 25 μg/mouse daily from day 10, day 26
  lung fibrosis (Masson's Trichrome), established fibrosis: No beneficial effect
TGF-β1 [1]; 75 μg/mouse daily from day 10, day 26, vs untreated mice
  lung fibrosis (Masson's Trichrome), established fibrosis: significant attenuation of fibrosis
TGF-β1 [2]
  Smad2 phosphorylation induced by TGF-β1: decreased
TGF-β1 [3]
  % Inhibition of in vitro TGF-β1 biological activity: 28.5%
